Experiments:
MDA-MB-231 (breast) = experiment: SRB anti-tumour (growth inhibition) assay, MDA-MB-231; assay type: cell-based; details: Homo sapiens, 48 h exposure, read-out: GI50 (concentration inhibiting 50% of cell growth)
Description: (§1) The compounds generated were tested against a series of cell lines from tumours. It quantitatively determined the cell growth and the viability, using a colorimetric assay type, using the reaction with sulforhodamine B (SRB), according to the technique described by Faircloth et al. (Journal of Tissue and Culture Methods 1988, 11, 201-205).
(§2) 96-well microtitre plates are inoculated with cells (5×10^3 cells per well) in aliquots of 195 μl of medium, incubating them during 18 h, in a medium without added compound, to allow the cells to adhere to the surface. Next, the compounds to be tested are added, in samples of 5 μl, at a range of concentrations of 10 to 10^−8 μg/ml, dissolved in DMSO/EtOH (0.2% in PS buffer). After 48 h exposure, the anti-tumour effect is measured using the Sulforhodamine B (SRB) technique: the cells are fixed adding 50 μl of cold […] (50%) (w/v) and it is incubated for 60 min. at 4° C. The plates are washed with deionized water and dried. 100 μl of SRB solution (0.4% w/v in 1% acetic acid) to each well and it is incubated during 10 min. at ambient temperature. The non-bound SRB is eliminated, washing with 1% acetic acid. The plates are air dried and the bound colorant is dissolved with Tris buffer. The optical densities are read in an automatic plate spectrophotometer reader at a wavelength of 490 nm.
(§3) For the compounds of formula (III), (IV), (V), (VI), (VII), (VIII), (IX) and the compounds of formula (XII), (XIII), (XIV), (XV), (XVI) and (XVIII).

HT29 (colon) = experiment: SRB anti-tumour (growth inhibition) assay, HT29; assay type: cell-based; details: Homo sapiens, HT-29, 48 h exposure, read-out: GI50 (concentration inhibiting 50% of cell growth)
Description: as §1, §2, §3

Compound | GI50 (MDA-MB-231 (breast)) [nM] | GI50 (HT29 (colon)) [nM]
C[C@@H]1O[C@@H](n2c3ccccc3c3c4c(c5c6ccccc6[nH]c5c32)C(=O)NC4=O)[C@H](O)[C@H](O)[C@H]1O [formula (III), N^13-1′-β-L-rhamnosylarcyriaflavin] | 4400 | 2420
C[C@@H]1O[C@@H](n2c3ccccc3c3c4c(c5c6ccccc6[nH]c5c32)C(=O)NC4=O)C[C@H](O)[C@H]1O [formula (IV), N^13-1′-β-L-olivosylarcyriaflavin] | 14100 | 8790
C[C@]12O[C@H](C[C@@H](O)[C@H]1O)n1c3ccccc3c3c4c(c5c6ccccc6n2c5c31)C(=O)NC4=O [formula (IX), N^12-5′(S)-N^13-1′-(R)-L-digitoxosylarcyriaflavin] | 8160 | 8160
C[C@@H]1O[C@@H](n2c3ccccc3c3c4c(c5c6ccccc6[nH]c5c32)C(=O)NC4=O)C[C@@H](O)[C@H]1O [formula (V), N^13-1′-β-L-digitoxosylarcyriaflavin] | 4190 | 6390
C[C@H]1O[C@@H](n2c3ccccc3c3c4c(c5c6ccccc6[nH]c5c32)C(=O)NC4=O)C[C@@H](O)[C@@H]1O [formula (VI), N^13-1′-β-D-olivosylarcyriaflavin] | 2430 | 2160
C[C@]12O[C@H]([C@H](O)[C@H](O)[C@H]1O)n1c3ccccc3c3c4c(c5c6ccccc6n2c5c31)C(=O)NC4=O [formula (VII), N^12-5′(S)-N^13-1′-(R)-L-rhamnosylarcyriaflavin] | 1350 | 2450
C[C@]12O[C@H](C[C@H](O)[C@H]1O)n1c3ccccc3c3c4c(c5c6ccccc6n2c5c31)C(=O)NC4=O [formula (VIII), N^12-5′(S)-N^13-1′-(R)-L-olivosylarcyriaflavin] | 7500 | 11200
C[C@@H]1O[C@@H](n2c3ccccc3c3c4c(c5c6ccccc6[nH]c5c32)CNC4=O)[C@H](O)[C@H](O)[C@H]1O [formula (XII), N^13-1′-β-L-rhamnosyl-k252c] | 1970 | 2100
C[C@@H]1O[C@@H](n2c3ccccc3c3c4c(c5c6ccccc6[nH]c5c32)CNC4=O)C[C@H](O)[C@H]1O [formula (XIII), N^13-1′-β-L-olivosyl-k252c] | 1430 | 1520
C[C@@H]1O[C@@H](n2c3ccccc3c3c4c(c5c6ccccc6[nH]c5c32)CNC4=O)C[C@@H](O)[C@H]1O [formula (XIV), N^13-1′-β-L-digitoxosyl-k252c] | 2490 | 3400
C[C@H]1O[C@@H](n2c3ccccc3c3c4c(c5c6ccccc6[nH]c5c32)CNC4=O)C[C@@H](O)[C@@H]1O [formula (XV), N^13-1′-β-D-olivosyl-k252c] | 3170 | 3850
C[C@]12O[C@H]([C@H](O)[C@H](O)[C@H]1O)n1c3ccccc3c3c4c(c5c6ccccc6n2c5c31)CNC4=O [formula (XVI), N^12-5′(S)-N^13-1′-(R)-L-rhamnosyl-k252c] | 590 | 870
C[C@]12O[C@H](C[C@H](O)[C@H]1O)n1c3ccccc3c3c4c(c5c6ccccc6n2c5c31)CNC4=O [formula (XVII), N^12-5′(S)-N^13-1′-(R)-L-olivosyl-k252c] | 1050 | 1210
C[C@]12O[C@H](C[C@@H](O)[C@H]1O)n1c3ccccc3c3c4c(c5c6ccccc6n2c5c31)CNC4=O [formula (XVIII), N^12-5′(S)-N^13-1′-(R)-L-digitoxosyl-k252c] | 1840 | 1520

— patent US8598132B2, “Glycosylated indolocarbazoles, method for obtaining same and uses thereof” (Universidad de Oviedo, priority 2008, dated 2013)
